Earlier results on 1 compound are cited in publication PMC8596843, “Platinum Cyclooctadiene Complexes with Activity against Gram‐positive Bacteria” (Chemmedchem, 2021).

Structures are written as SMILES.

On the set-up of this data set: method as in PMID 33469147. The note with it: mouse skin infection models, topical; cited from earlier work.

With `C=C(C)[C@@H]1CCC(C)=C[C@H]1c1c(O)cc(CCCCC)cc1O` [cannabidiol], the bacterial load result is listed as “able to reduce bacterial load”.
